In patent US7109338B2, “1,2-disubstituted 1,4-dihydro-4-oxoquinoline compounds” (priority 1999, dated 2006) one finds IC50, CC50 and melting point data, which are given here for eight compounds.

Values after ≈ are worked out from the molar mass of the structure shown. Bounds are passed on as bounds.

Series [1] relates to HRV 2 (HGP). In words: Anti-rhinovirus activity (MTT), HRV2. The note with it: Human rhinovirus sp., HRV2; HeLa (Ohio strain) cells, MTT method, 33° C.; read-out: IC50 HRV2. In kind it is cell-based, human rhinovirus.
The test system of series [2] is human rhinovirus type 1B (HRV 1B, B632). The series is described as follows: Anti-rhinovirus activity (MTT), HRV1B. The note with it: Human rhinovirus sp., HRV1B; HeLa (Ohio strain) cells, MTT method, 33° C.; read-out: IC50 HRV1B. In kind it is cell-based.
The nature of series [3]: Cytotoxicity (MTT, without virus), HeLa-S3. Conditions: human, HeLa-S3 cells (uninfected).
A short description of series [4]: Cytotoxicity (MTT, without virus), HeLa(Ohio). The note with it: human, HeLa (Ohio strain) cells (uninfected).
Series [5] relates to Poliovirus type 1 (Polio 1, Sabin). The series is described as follows: microbe, parasite or virus in culture. It is filed as cell-based. Conditions: Enterovirus C, HeLa S3, read-out: IC50 Polio 1.
For series [6], the system named is coxsackievirus type B4 (CB4,JVB). The series is described as follows: In vitro anti-picornavirus activity (MTT), CB4. It is filed as cell-based. The note with it: Coxsackievirus; HeLa cells, MTT method, 37° C.
Series [7] deals with coxsackievirus type A7 (CA7). In words: In vitro anti-picornavirus activity (MTT), CA7. In kind it is cell-based. The note with it: Coxsackievirus; HeLa-S3 cells, MTT method, 37° C.
Series [8] can be described thus: Cytotoxicity (MTT, without virus), HeLa. Conditions: human, HeLa cells (uninfected).
In series [9] the test system is echovirus type 11 (Echo 11, Gregory). In words: In vitro anti-picornavirus activity (MTT), Echo 11. The note with it: Enterovirus B; HeLa-S3 cells, MTT method, 37° C. In kind it is cell-based.
The subject of series [10] is HRV 89 (41617-Gallo). In words: Anti-rhinovirus activity (MTT), HRV89. Conditions: Human rhinovirus sp., HRV89; HeLa (Ohio strain) cells, MTT method, 33° C.; read-out: IC50 HRV89. It is filed as cell-based, human rhinovirus.
Series [11] has as its system HRV14 (1059). In words: Anti-rhinovirus activity (MTT), HRV14. The note with it: Human rhinovirus sp., HRV14; HeLa (Ohio strain) cells, MTT method, 33° C.; read-out: IC50 HRV 14. In kind it is cell-based, human rhinovirus.
Series [12] concerns HRV1A (E28). In words: Anti-rhinovirus activity (MTT), HRV1A. In kind it is cell-based, human rhinovirus. The note with it: Human rhinovirus sp., HRV1A, HeLa, read-out: IC50 HRV 1A.

In the case of `CCn1c(-c2ccccc2)c(C)c(=O)c2cc(C(C)C)ccc21` [Compound A37, 1-Ethyl-2-phenyl-3-methyl-6-isopropyl-1,4-dihydro-4-oxoquinoline], the melting point is 159 to 165 °C. Moreover, in [1], the IC50 was determined as 0.83 µg/mL (≈ 2.72 µM). The IC50 in series [2] turned out to be 1 µg/mL (≈ 3.27 µM). The CC50 at 4 days in [3] was 12 µg/mL (≈ 39.3 µM). In addition, the midpoint of cytotoxicity in series [4], the CC50 at 4 days, lay at 11 µg/mL (≈ 36 µM). Further, in [5], the IC50 stood at 1.1 µg/mL (≈ 3.6 µM). The same compound registered an IC50 in series [6] of 6.7 µg/mL (≈ 21.9 µM). This compound displayed an IC50 in series [7] of 3.8 µg/mL (≈ 12.4 µM). The compound further showed a CC50 at 4 days in series [8] of 11 µg/mL (≈ 36 µM). Half-maximal inhibition in series [9] (IC50) required 0.91 µg/mL (≈ 2.98 µM). Further, in series [10], the IC50 was determined as 0.54 µg/mL (≈ 1.77 µM).
With `CCn1c(-c2ccc(OC)c(C)c2)c(C)c(=O)c2c(C)c(OCC(C)C)ccc21` [Compound A191, 1-Ethyl-2-(3-methyl-4-methoxyphenyl)-3,5-dimethyl-6-isobutoxy-1,4-dihydro-4-oxoquinoline], the melting point stood at 149 °C. Also, the half-maximal inhibitory concentration (IC50) in series [1] turned out to be 0.15 µg/mL (≈ 0.381 µM). The half-maximal inhibitory concentration (IC50) in series [2] turned out to be 1.3 µg/mL (≈ 3.3 µM). In addition, the CC50 at 4 days in series [3] was over 4 µg/mL. Also, the 50% cytotoxic concentration (CC50) at 4 days in series [4] was over 4 µg/mL. Moreover, in series [5], the half-maximal inhibitory concentration (IC50) was 0.4 µg/mL (≈ 1.02 µM). The same compound returned an IC50 in series [6] of 1.6 µg/mL (≈ 4.07 µM). In addition, half-maximal inhibition in [7] (IC50) was put at 2.5 µg/mL (≈ 6.35 µM). The CC50 at 4 days in series [8] was over 4 µg/mL. This compound returned an IC50 in [9] of 0.19 µg/mL (≈ 0.483 µM). The IC50 in series [10] is 0.2 µg/mL (≈ 0.508 µM).
In the case of `CCn1c(-c2ccco2)cc(=O)c2cc(C(C)C)ccc21` [Compound A304, 1-Ethyl-2-(2-furyl)-6-isopropyl-1,4-dihydro-4-oxoquinoline], the melting point lay in the range of 70 to 73 °C. In addition, the IC50 in series [1] is 0.34 µg/mL (≈ 1.21 µM). Also, the IC50 in series [2] turned out to be 0.76 µg/mL (≈ 2.7 µM). The compound also returned a CC50 at 4 days in series [3] of over 20 µg/mL. The compound further displayed a CC50 at 4 days in series [4] of 19 µg/mL (≈ 67.5 µM). Moreover, the IC50 in series [5] turned out to be 0.8 µg/mL (≈ 2.84 µM). In series [6], this compound registered an IC50 of 1.9 µg/mL (≈ 6.75 µM). In [7], this compound displayed an IC50 of 3.6 µg/mL (≈ 12.8 µM). The same compound had a CC50 at 4 days in [8] of 18 µg/mL (≈ 64 µM). For the same compound, the IC50 in [9] came to 0.35 µg/mL (≈ 1.24 µM). In addition, in [10], the IC50 was 0.9 µg/mL (≈ 3.2 µM).
With `CCn1c2c(c(=O)c3cc(C(C)C)ccc31)Cc1ccccc1-2` [Compound B2, 5-Ethyl-8-isopropyl-5,10-dihydro-11H-indeno[1,2-b]quinolin-10-one], the IC50 in series [1] was determined as 0.15 µg/mL (≈ 0.494 µM); in [2] it was 0.54 µg/mL (≈ 1.78 µM); in [11], 0.65 µg/mL (≈ 2.14 µM); in series [5] it was 0.58 µg/mL (≈ 1.91 µM); in series [6], 0.97 µg/mL (≈ 3.2 µM); in series [12], 5 µg/mL (≈ 16.5 µM). For the same compound, the IC50 in series [7] came to 3.1 µg/mL (≈ 10.2 µM); in [9] it was 0.19 µg/mL (≈ 0.626 µM); in [10], 0.48 µg/mL (≈ 1.58 µM). The CC50 at 4 days in series [3], in [4] and in series [8] was over 10 µg/mL each time.
Compound `CCn1c2c(c(=O)c3cc(C(C)C)ccc31)Cc1ccsc1-2` [Compound D50, 10-Ethyl-7-isopropyl-5,10-dihydro-4H-thieno[3′,2′:4,5]cyclopenta[1,2-b]quinolin-5-one] came in with a melting point of 168 to 169 °C. In addition, the IC50 in series [1] came to 0.2 µg/mL (≈ 0.646 µM). For the same compound, the IC50 in series [2] came out at 0.25 µg/mL (≈ 0.808 µM). For the same compound, in [11], the IC50 is 1.3 µg/mL (≈ 4.2 µM). Besides, the CC50 at 4 days in series [3] was over 10 µg/mL. In [4], this compound had a CC50 at 4 days of over 10 µg/mL. For the same compound, the IC50 in series [5] was 0.64 µg/mL (≈ 2.07 µM). The compound further came in with an IC50 in series [6] of 0.82 µg/mL (≈ 2.65 µM). The half-maximal inhibitory concentration (IC50) in series [12] turned out to be 2.2 µg/mL (≈ 7.11 µM). In series [7], this compound gave an IC50 of 1.9 µg/mL (≈ 6.14 µM). In [8], this compound yielded a CC50 at 4 days of 7.8 µg/mL (≈ 25.2 µM). Also, the IC50 in series [9] was 0.27 µg/mL (≈ 0.873 µM). For the same compound, in series [10], the IC50 turned out to be 0.41 µg/mL (≈ 1.32 µM).
In the case of `CCn1c2c(c(=O)c3cc(C(C)C)ccc31)Cc1cc(C)sc1-2` [Compound D51, 10-Ethyl-7-isopropyl-2-methyl-5,10-dihydro-4H-thieno[3′,2′:4,5]cyclopenta[1,2-b]quinolin-5-one], the IC50 in series [1] was 0.27 µg/mL (≈ 0.835 µM); in series [2], 0.59 µg/mL (≈ 1.82 µM); in [11], 0.82 µg/mL (≈ 2.54 µM); in series [5] it was 0.28 µg/mL (≈ 0.866 µM); in series [6] it was 0.72 µg/mL (≈ 2.23 µM); in series [12], 3.1 µg/mL (≈ 9.58 µM). In addition, the IC50 in series [7] was determined as 1.1 µg/mL (≈ 3.4 µM); in series [9], 0.21 µg/mL (≈ 0.649 µM); in [10] it was 0.35 µg/mL (≈ 1.08 µM). The CC50 at 4 days in [3], in series [4] and in series [8] was over 5 µg/mL throughout.
For `CCn1c2c(c(=O)c3cc(C(C)C)ccc31)Cc1c(C)csc1-2` [Compound D52, 10-Ethyl-7-isopropyl-3-methyl-5,10-dihydro-4H-thieno[3′,2′:4,5]cyclopenta[1,2-b]quinolin-5-one], the melting point is 195 °C (dec.). Also, the IC50 in [1] came to 0.86 µg/mL (≈ 2.66 µM). Moreover, the IC50 in [2] was determined as 0.89 µg/mL (≈ 2.75 µM). Further, the IC50 in series [11] stood at 1.1 µg/mL (≈ 3.4 µM). The compound further showed a CC50 at 4 days in [3] of over 5 µg/mL. In series [4], the CC50 at 4 days was over 5 µg/mL. In addition, the IC50 in series [5] came to 1 µg/mL (≈ 3.09 µM). Moreover, the IC50 in series [6] amounted to 3 µg/mL (≈ 9.27 µM). The IC50 in series [12] turned out to be 3.1 µg/mL (≈ 9.58 µM). Moreover, the IC50 in [7] was over 5 µg/mL. Also, in series [8], the CC50 at 4 days is over 5 µg/mL. Also, in series [9], the IC50 amounted to 0.55 µg/mL (≈ 1.7 µM). Further, the IC50 in series [10] was 0.85 µg/mL (≈ 2.63 µM).
For `CCn1c2c(c(=O)c3cc(C(C)C)ccc31)Cc1c-2ccn1C` [Compound D53, 4-Ethyl-7-isopropyl-1-methyl-4,9-dihydro-10H-pyrrolo[2′,3′:4,5]cyclopenta[1,2-b]quinolin-9-one], the melting point was 91 to 93 °C. Besides, the concentration for half-maximal inhibition (IC50) in [1] was found to be 0.91 µg/mL (≈ 2.97 µM). In addition, the half-maximal inhibitory concentration (IC50) in [2] was found to be 1.6 µg/mL (≈ 5.22 µM). For the same compound, the IC50 in [11] came out at 2.3 µg/mL (≈ 7.51 µM). In series [3], this compound had a 50% cytotoxic concentration (CC50) at 4 days of over 10 µg/mL. This compound also had a CC50 at 4 days in series [4] of over 10 µg/mL. Besides, in series [5], the IC50 is 1.8 µg/mL (≈ 5.87 µM). This compound also came in with an IC50 in [6] of over 3.3 µg/mL. For the same compound, in series [12], the 50% inhibitory concentration (IC50) was over 10 µg/mL. The compound further displayed an IC50 in series [7] of over 10 µg/mL. The compound further registered a CC50 at 4 days in [8] of over 10 µg/mL. Moreover, the midpoint of inhibition in series [9], the IC50, lay at 0.68 µg/mL (≈ 2.22 µM). Also, the 50% inhibitory concentration (IC50) in series [10] was found to be 1.4 µg/mL (≈ 4.57 µM).
